Reference: PubChem BioAssay AID248 (DTP/NCI, 2004)
Several values for one entry are separate records, joined by “and”; a condition that tells them apart may be missing. Equal values may be shown once. Inconclusive results and toxic doses are left out. Rule as the data show it: active = T/C of 150% or more; inactive = T/C below 125%.

Test system: L1210 leukemia ip in BDF1 mice, survival T/C
Assay: NCI In Vivo Anticancer Drug Screen. Data for tumor model L1210 Leukemia (intraperitoneal) in B6D2F1 (BDF1) mice
Conditions: endpoint: mean survival time, higher = longer survival
Procedure, shortened: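 Survival endpoint. Drug-treated group vs vehicle group, expressed as T divided by C. Tumor passaged by transplantation.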

[1] = dose: 25.0 mg/kg/injection, schedule: Q04DX003 (ip), vehicle: saline
[2] = dose: 100.0 mg/kg/injection, schedule: Q04DX003 (ip), vehicle: saline
[3] = dose: 100.0 mg/kg/injection, schedule: Q04DX003 (ip), vehicle: Klucel (hydroxypropylcellulose) (HPC)
[4] = dose: 200.0 mg/kg/injection, schedule: Q04DX003 (ip), vehicle: Klucel (hydroxypropylcellulose) (HPC)
[5] = dose: 400.0 mg/kg/injection, schedule: Q04DX003 (ip), vehicle: Klucel (hydroxypropylcellulose) (HPC)
[6] = dose: 100.0 mg/kg/injection, schedule: Q01DX001 (ip), vehicle: saline
[7] = dose: 200.0 mg/kg/injection, schedule: Q01DX001 (ip), vehicle: saline
[8] = dose: 400.0 mg/kg/injection, schedule: Q01DX001 (ip), vehicle: saline
[9] = dose: 100.0 mg/kg/injection, schedule: Q01DX009 (ip), vehicle: saline with Tween-80
[10] = dose: 100.0 mg/kg/injection, schedule: Q04DX003 (ip), vehicle: saline with Tween-80
[11] = dose: 200.0 mg/kg/injection, schedule: Q01DX009 (ip), vehicle: saline with Tween-80
[12] = dose: 200.0 mg/kg/injection, schedule: Q04DX003 (ip), vehicle: saline with Tween-80
[13] = dose: 400.0 mg/kg/injection, schedule: Q04DX003 (ip), vehicle: saline with Tween-80
[14] = dose: 100.0 mg/kg/injection, schedule: Q01DX009 (ip), vehicle: Klucel (hydroxypropylcellulose) (HPC)
[15] = dose: 200.0 mg/kg/injection, schedule: Q01DX009 (ip), vehicle: Klucel (hydroxypropylcellulose) (HPC)
[16] = dose: 50.0 mg/kg/injection, schedule: Q01DX001 (ip), vehicle: saline

Measured: T/C

Nc1[nH]c(=O)cc(O)c1N
inactive: dose: 12.5 mg/kg/injection, schedule: Q04DX003 (ip), vehicle: saline 108 % of control | [1] 105 % of control | [2] 98 % of control

C[NH-].C[NH-].C[NH-].[Cl][Rh]([Cl])[Cl]
inactive: [1] 96 % of control | dose: 50.0 mg/kg/injection, schedule: Q04DX003 (ip), vehicle: saline 96 % of control | [2] 96 % of control

CC1(CCC(=O)O)SCSCS1
inactive: [3] 97 % of control | [4] 90 % of control | [5] 92 % of control

CC(=O)Oc1ccccc1/C=C\C=O
inactive: [6] 103 % of control | [7] 106 % of control | [8] 105 % of control

CC1(C)C(=O)C2(C(=O)O)CCC1C2 (configuration not stated)
inactive: [9] 93 % of control | [10] 101 % of control | [11] 98 % of control | [12] 101 % of control | dose: 400.0 mg/kg/injection, schedule: Q01DX009 (ip), vehicle: saline with Tween-80 96 % of control | [13] 88 % of control

CC(OC(C)c1ccccc1)c1ccccc1 (configuration not stated)
inactive: [14] 96 % of control | [15] 105 % of control | dose: 400.0 mg/kg/injection, schedule: Q01DX009 (ip), vehicle: Klucel (hydroxypropylcellulose) (HPC) 101 % of control

C=CCOCC(O)CN(CC(C)C)CC(C)C (configuration not stated)
inactive: [14] 112 % of control | [3] 95 % of control | [15] 101 % of control | [4] 88 % of control | [5] 105 % of control

CC(C)c1ccc(/C=N/NC(=O)c2ccc[n+](C)c2)cc1
inactive: dose: 12.5 mg/kg/injection, schedule: Q01DX009 (ip), vehicle: saline 94 % of control | dose: 25.0 mg/kg/injection, schedule: Q01DX009 (ip), vehicle: saline 98 % of control | dose: 50.0 mg/kg/injection, schedule: Q01DX009 (ip), vehicle: saline 112 % of control and 91 % of control

CCCCCCCCCCCCc1ccc2c(ccc3ccccc32)c1
inactive: [6] 95 % of control | [7] 98 % of control | [8] 98 % of control

COP(=O)(OC)C(OC(=O)C(C)C)=C(C)C
inactive: [10] 112 % of control | [12] 110 % of control | [13] 102 % of control

C/C=N\O
inactive: dose: 25.0 mg/kg/injection, schedule: Q01DX001 (ip), vehicle: saline 112 % of control | [16] 102 % of control | [6] 102 % of control

S=C([S-])N1CCN(c2ccccc2)CC1.S=C([S-])N1CCN(c2ccccc2)CC1.[Zn]
inactive: [2] 89 % of control | dose: 200.0 mg/kg/injection, schedule: Q04DX003 (ip), vehicle: saline 95 % of control and 88 % of control | dose: 400.0 mg/kg/injection, schedule: Q04DX003 (ip), vehicle: saline 90 % of control

Cc1ccc(CC(=O)c2c[nH]c3ccccc23)c(Cl)c1C
inactive: [16] 96 % of control | [6] 98 % of control | [7] 93 % of control | [8] 98 % of control

CC(=O)c1ccc(N2CCNCC2)cc1
inactive: dose: 10.0 mg/kg/injection, schedule: Q01DX001 (ip), vehicle: carboxymethylcellulose (CMC) 115 % of control | dose: 20.0 mg/kg/injection, schedule: Q01DX001 (ip), vehicle: carboxymethylcellulose (CMC) 107 % of control | dose: 40.0 mg/kg/injection, schedule: Q01DX001 (ip), vehicle: carboxymethylcellulose (CMC) 109 % of control

COC(=O)/C(C)=N\N=C(N)N
inactive: dose: 15.0 mg/kg/injection, schedule: Q01DX Z (ip), vehicle: carboxymethylcellulose (CMC) 104 % of control | dose: 30.0 mg/kg/injection, schedule: Q01DX Z (ip), vehicle: carboxymethylcellulose (CMC) 92 % of control | dose: 60.0 mg/kg/injection, schedule: Q01DX Z (ip), vehicle: carboxymethylcellulose (CMC) 103 % of control | dose: 120.0 mg/kg/injection, schedule: Q01DX Z (ip), vehicle: carboxymethylcellulose (CMC) 97 % of control | dose: 240.0 mg/kg/injection, schedule: Q01DX Z (oral), vehicle: carboxymethylcellulose (CMC) 100 % of control | dose: 480.0 mg/kg/injection, schedule: Q01DX Z (oral), vehicle: carboxymethylcellulose (CMC) 96 % of control | dose: 960.0 mg/kg/injection, schedule: Q01DX Z (oral), vehicle: carboxymethylcellulose (CMC) 100 % of control | dose: 1920.0 mg/kg/injection, schedule: Q01DX Z (oral), vehicle: carboxymethylcellulose (CMC) 98 % of control

OC1CCCN(Cc2ccccc2)C1 (configuration not stated)
inactive: [6] 107 % of control | [7] 96 % of control

CCCCOP(=O)(/C=C(\C#N)C(=O)OCC)OCCCC
inactive: [3] 87 % of control | [4] 103 % of control | [5] 98 % of control

CCN(CC)C(C)(C)COC(=O)c1ccc([N+](=O)[O-])cc1
inactive: dose: 222.0 mg/kg/injection, schedule: Q01DX Z (ip), vehicle: methylcellulose (MC) 121 % of control | dose: 333.0 mg/kg/injection, schedule: Q01DX Z (ip), vehicle: methylcellulose (MC) 101 % of control | dose: 500.0 mg/kg/injection, schedule: Q01DX Z (ip), vehicle: methylcellulose (MC) 96 % of control

Cc1ccc(CSc2ccc([N+](=O)[O-])cc2[N+](=O)[O-])cc1
inactive: dose: 100.0 mg/kg/injection, schedule: Q01DX001 (ip), vehicle: carboxymethylcellulose (CMC) 113 % of control | dose: 200.0 mg/kg/injection, schedule: Q01DX001 (ip), vehicle: carboxymethylcellulose (CMC) 98 % of control | dose: 400.0 mg/kg/injection, schedule: Q01DX001 (ip), vehicle: carboxymethylcellulose (CMC) 92 % of control

CC(=O)NC(C)C(N)=O (configuration not stated)
inactive: dose: 100.0 mg/kg/injection, schedule: Q04DX002 (ip), vehicle: saline 108 % of control | dose: 200.0 mg/kg/injection, schedule: Q04DX002 (ip), vehicle: saline 105 % of control | dose: 400.0 mg/kg/injection, schedule: Q04DX002 (ip), vehicle: saline 96 % of control

C=C1CCC(c2ccccc2)N(C)C1=O (configuration not stated)
inactive: dose: 25.0 mg/kg/injection, schedule: Q01DX001 (ip), vehicle: saline with Tween-80 104 % of control | dose: 50.0 mg/kg/injection, schedule: Q01DX001 (ip), vehicle: saline with Tween-80 101 % of control | dose: 100.0 mg/kg/injection, schedule: Q01DX001 (ip), vehicle: saline with Tween-80 98 % of control | dose: 200.0 mg/kg/injection, schedule: Q01DX001 (ip), vehicle: saline with Tween-80 98 % of control

O=C(NC12CC3CC(CC(C3)C1)C2)C(O)C(O)C(O)C(O)CO (configuration not stated)
inactive: [6] 110 % of control | [7] 100 % of control | [8] 100 % of control

CCCCC(CC)C(=O)N1CCOCC1 (configuration not stated)
inactive: [10] 120 % of control | [12] 114 % of control | [13] 107 % of control

Cc1ccc(N2C=C(c3ccccc3)CC2=O)cc1
inactive: dose: 100.0 mg/kg/injection, schedule: Q04DX002 (ip), vehicle: saline with Tween-80 107 % of control | dose: 200.0 mg/kg/injection, schedule: Q04DX002 (ip), vehicle: saline with Tween-80 100 % of control | dose: 400.0 mg/kg/injection, schedule: Q04DX002 (ip), vehicle: saline with Tween-80 104 % of control

C/C(Cl)=C/CC1=C(O)c2ccccc2C(=O)C1=O
inactive: dose: 25.0 mg/kg/injection, schedule: Q01DX001 (ip), vehicle: water 104 % of control | dose: 50.0 mg/kg/injection, schedule: Q01DX001 (ip), vehicle: water 101 % of control | dose: 75.0 mg/kg/injection, schedule: Q01DX001 (ip), vehicle: water 97 % of control

CC(=O)OC(C)(C)Cc1ccccc1
inactive: [9] 90 % of control | [11] 108 % of control

CN(C)c1nc(N)nc2c1nc(Cl)n2C1OC(CO)C(O)C1O (configuration not stated)
inactive: [6] 97 % of control | [7] 94 % of control | [8] 105 % of control

COc1ccc(C(C#N)N(C)C)cc1OC (configuration not stated)
inactive: [16] 100 % of control | [6] 100 % of control

Nc1nccnc1Nc1ccccc1
inactive: dose: 75.0 mg/kg/injection, schedule: Q01DX001 (ip), vehicle: other 100 % of control | dose: 150.0 mg/kg/injection, schedule: Q01DX001 (ip), vehicle: other 100 % of control | dose: 300.0 mg/kg/injection, schedule: Q01DX001 (ip), vehicle: other 100 % of control

Cc1cccc(NC(=O)OCCN(CCOC(=O)Nc2cccc(C)c2)c2cccc(C)c2)c1
inactive: [6] 88 % of control | [7] 90 % of control | [8] 94 % of control

COc1ccc([N+](=O)[O-])cc1NC(=O)Nc1cccc(C(F)(F)F)c1
inactive: dose: 100.0 mg/kg/injection, schedule: Q04DX002 (ip), vehicle: Klucel (hydroxypropylcellulose) (HPC) 96 % of control | dose: 200.0 mg/kg/injection, schedule: Q04DX002 (ip), vehicle: Klucel (hydroxypropylcellulose) (HPC) 101 % of control | dose: 400.0 mg/kg/injection, schedule: Q04DX002 (ip), vehicle: Klucel (hydroxypropylcellulose) (HPC) 96 % of control
